Experimental data: patent publication US20020111274A1, “1-alkyl-3-[1-(substituted phenyl) benzotriazol-6-yl] uracils” (BASF Aktiengesellschaft, priority 2000, published 2002)

Tests used:
Parameters in all cases: scale not given here
[1] = tested on: ABUTH Velvetleaf; assay: Postemergence herbicidal evaluation, ABUTH; type: in vivo, Abutilon theophrasti, Medic.; conditions: postemergence spray, rated about two-three weeks after treatment
Procedure, shortened: (§1)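 Visual injury rating ~2–3 wk post-spray; replicate tests averaged. Two-week-old seedlings; foliar spray at 40 psi; 0.006–0.400 kg ai/ha in 80/20 acetone/water + 1.0% methylated seed oil.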

[2] = tested on: AMBEL Ragweed, Common; assay: Postemergence herbicidal evaluation, AMBEL; type: in vivo, Ambrosia artemisifolia, L.; conditions: postemergence spray, rated about two-three weeks after treatment
Procedure, shortened: as §1

[3] = tested on: CASOB Sicklepod; assay: Postemergence herbicidal evaluation, CASOB; type: in vivo, Cassia obtusifolia, L.; conditions: postemergence spray, rated about two-three weeks after treatment
Procedure, shortened: as §1

[4] = tested on: CHEAL Lambsquarters, Common; assay: Postemergence herbicidal evaluation, CHEAL; type: in vivo, Chenopodium album, L.; conditions: postemergence spray, rated about two-three weeks after treatment
Procedure, shortened: as §1

[5] = tested on: ECHOG Barnyardgrass; assay: Postemergence herbicidal evaluation, ECHOG; type: in vivo, Echinochloa crus-galli, (L.) Beau; conditions: postemergence spray, rated about two-three weeks after treatment
Procedure, shortened: as §1

[6] = tested on: GALAP Galium; assay: Postemergence herbicidal evaluation, GALAP; type: in vivo, Galium aparine; conditions: postemergence spray, rated about two-three weeks after treatment
Procedure, shortened: as §1

[7] = tested on: IPOHE Morningglory, Ivyleaf; assay: Postemergence herbicidal evaluation, IPOHE; type: in vivo, Ipomoea hederacea, (L.) Jacq.; conditions: postemergence spray, rated about two-three weeks after treatment
Procedure, shortened: as §1

[8] = tested on: SETVI Foxtail, Green; assay: Postemergence herbicidal evaluation, SETVI; type: in vivo, Setaria viridis, (L.) Beau; conditions: postemergence spray, rated about two-three weeks after treatment
Procedure, shortened: as §1

[9] = tested on: GLXMAW Soybean, Williams; assay: Postemergence herbicidal evaluation, GLXMAW; type: in vivo, Glycine max, (L.) Merr. cv Williams; conditions: postemergence spray, rated about two-three weeks after treatment
Procedure, shortened: as §1

[10] = tested on: TRZAWR Wheat, Winter, cv Riband; assay: Postemergence herbicidal evaluation, TRZAWR; type: in vivo, Triticum aestivum; conditions: postemergence spray, rated about two-three weeks after treatment
Procedure, shortened: as §1

[11] = tested on: ORYSAT Rice, Tebonnet; assay: Postemergence herbicidal evaluation, ORYSAT; type: in vivo, Oryza sativa, (L.); conditions: postemergence spray, rated about two-three weeks after treatment
Procedure, shortened: as §1

[12] = tested on: ZEAMX Corn, Field; assay: Postemergence herbicidal evaluation, ZEAMX; type: in vivo, Zea mays, L. (Sammel-Bezeichnung); conditions: postemergence spray, rated about two-three weeks after treatment
Procedure, shortened: as §1

[13] = tested on: ABUTH Velvetleaf; assay: Preemergence herbicidal evaluation, ABUTH; type: in vivo, Abutilon theophrasti, Medic.; conditions: preemergence
Procedure, shortened: (§2)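 Preemergence soil spray: aqueous acetone, ~0.013–0.800 kg/ha, applied right after sowing (seed/potting-soil mix over ~1 in soil). Greenhouse, routine watering. Scored 4–5 wk post-treatment on a rating scale.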

[14] = tested on: AMBEL Ragweed, Common; assay: Preemergence herbicidal evaluation, AMBEL; type: in vivo, Ambrosia artemisifolia, L.; conditions: preemergence
Procedure, shortened: as §2

[15] = tested on: CASOB Sicklepod; assay: Preemergence herbicidal evaluation, CASOB; type: in vivo, Cassia obtusifolia, L.; conditions: preemergence
Procedure, shortened: as §2

[16] = tested on: CHEAL Lambsquarters, Common; assay: Preemergence herbicidal evaluation, CHEAL; type: in vivo, Chenopodium album, L.; conditions: preemergence
Procedure, shortened: as §2

[17] = tested on: ECHOG Barnyardgrass; assay: Preemergence herbicidal evaluation, ECHOG; type: in vivo, Echinochloa crus-galli, (L.) Beau; conditions: preemergence
Procedure, shortened: as §2

[18] = tested on: GALAP Galium; assay: Preemergence herbicidal evaluation, GALAP; type: in vivo, Galium aparine; conditions: preemergence
Procedure, shortened: as §2

[19] = tested on: IPOHE Morningglory, Ivyleaf; assay: Preemergence herbicidal evaluation, IPOHE; type: in vivo, Ipomoea hederacea, (L.) Jacq.; conditions: preemergence
Procedure, shortened: as §2

[20] = tested on: SETVI Foxtail, Green; assay: Preemergence herbicidal evaluation, SETVI; type: in vivo, Setaria viridis, (L.) Beau; conditions: preemergence
Procedure, shortened: as §2

[21] = tested on: GLXMAW Soybean, Williams; assay: Preemergence herbicidal evaluation, GLXMAW; type: in vivo, Glycine max, (L.) Merr. cv Williams; conditions: preemergence
Procedure, shortened: as §2

[22] = tested on: TRZAWR Wheat, Winter, cv Riband; assay: Preemergence herbicidal evaluation, TRZAWR; type: in vivo, Triticum aestivum; conditions: preemergence
Procedure, shortened: as §2

[23] = tested on: ORYSAT Rice, Tebonnet; assay: Preemergence herbicidal evaluation, ORYSAT; type: in vivo, Oryza sativa, (L.); conditions: preemergence
Procedure, shortened: as §2

[24] = tested on: ZEAMX Corn, Field; assay: Preemergence herbicidal evaluation, ZEAMX; type: in vivo, Zea mays, L. (Sammel-Bezeichnung); conditions: preemergence
Procedure, shortened: as §2

`COC(=O)COc1ccc(C)c(-n2nnc3cc(F)c(-n4c(=O)cc(C(F)(F)F)n(C)c4=O)cc32)c1` [Example 38] was tested, and the “Postemergence herbicidal rating ABUTH” value ([1]; 0.008 kg/ha) was 3.0, the “Postemergence herbicidal rating ABUTH” value ([1]; 0.016 kg/ha) was 8.0 and the “Postemergence herbicidal rating ABUTH” value ([1]; 0.032 kg/ha) was 9.0. The “Postemergence herbicidal rating ABUTH” value ([1]; 0.062 kg/ha) was 9.0, the “Postemergence herbicidal rating AMBEL” value ([2]; 0.008 kg/ha) was 2.0 and the “Postemergence herbicidal rating AMBEL” value ([2]; 0.016 kg/ha) was 7.0. The “Postemergence herbicidal rating AMBEL” value ([2]; 0.032 kg/ha) was 7.0, the “Postemergence herbicidal rating AMBEL” value ([2]; 0.062 kg/ha) was 9.0 and the “Postemergence herbicidal rating CASOB” value ([3]; 0.008 kg/ha) was 0.0. For the same compound, the “Postemergence herbicidal rating CASOB” value ([3]; 0.016 kg/ha) was 0.0, the “Postemergence herbicidal rating CASOB” value ([3]; 0.032 kg/ha) was 0.0 and the “Postemergence herbicidal rating CASOB” value ([3]; 0.062 kg/ha) was 1.0. The “Postemergence herbicidal rating CHEAL” value ([4]; 0.008 kg/ha) was 0.0, the “Postemergence herbicidal rating CHEAL” value ([4]; 0.016 kg/ha) was 0.0 and the “Postemergence herbicidal rating CHEAL” value ([4]; 0.032 kg/ha) was 2.0. For the same compound, the “Postemergence herbicidal rating CHEAL” value ([4]; 0.062 kg/ha) was 3.0, the “Postemergence herbicidal rating ECHCG” value ([5]; 0.008 kg/ha) was 0.0 and the “Postemergence herbicidal rating ECHCG” value ([5]; 0.016 kg/ha) was 0.0. For the same compound, the “Postemergence herbicidal rating ECHCG” value ([5]; 0.032 kg/ha) was 3.0, the “Postemergence herbicidal rating ECHCG” value ([5]; 0.062 kg/ha) was 3.0 and the “Postemergence herbicidal rating GALAP” value ([6]; 0.008 kg/ha) was 0.0. For the same compound, the “Postemergence herbicidal rating GALAP” value ([6]; 0.016 kg/ha) was 0.0, the “Postemergence herbicidal rating GALAP” value ([6]; 0.032 kg/ha) was 3.0 and the “Postemergence herbicidal rating GALAP” value ([6]; 0.062 kg/ha) was 4.0. For the same compound, the “Postemergence herbicidal rating IPOHE” value ([7]; 0.008 kg/ha) was 5.0, the “Postemergence herbicidal rating IPOHE” value ([7]; 0.016 kg/ha) was 5.0 and the “Postemergence herbicidal rating IPOHE” value ([7]; 0.032 kg/ha) was 9.0. The “Postemergence herbicidal rating IPOHE” value ([7]; 0.062 kg/ha) was 9.0, the “Postemergence herbicidal rating SETVI” value ([8]; 0.008 kg/ha) was 0.0 and the “Postemergence herbicidal rating SETVI” value ([8]; 0.016 kg/ha) was 0.0. The “Postemergence herbicidal rating SETVI” value ([8]; 0.032 kg/ha) was 7.0, the “Postemergence herbicidal rating SETVI” value ([8]; 0.062 kg/ha) was 9.0 and the “Postemergence herbicidal rating GLXMAW” value ([9]; 0.008 kg/ha) was 5.5. The “Postemergence herbicidal rating GLXMAW” value ([9]; 0.016 kg/ha) was 5.5, the “Postemergence herbicidal rating GLXMAW” value ([9]; 0.032 kg/ha) was 6.0 and the “Postemergence herbicidal rating GLXMAW” value ([9]; 0.062 kg/ha) was 7.5. For the same compound, the “Postemergence herbicidal rating TRZAWR” value ([10]; 0.008 kg/ha) was 3.5, the “Postemergence herbicidal rating TRZAWR” value ([10]; 0.016 kg/ha) was 4.5 and the “Postemergence herbicidal rating TRZAWR” value ([10]; 0.032 kg/ha) was 6.0. For the same compound, the “Postemergence herbicidal rating TRZAWR” value ([10]; 0.062 kg/ha) was 8.0, the “Postemergence herbicidal rating ORYSAT” value ([11]; 0.008 kg/ha) was 1.0 and the “Postemergence herbicidal rating ORYSAT” value ([11]; 0.016 kg/ha) was 2.0. The “Postemergence herbicidal rating ORYSAT” value ([11]; 0.032 kg/ha) was 3.5, the “Postemergence herbicidal rating ORYSAT” value ([11]; 0.062 kg/ha) was 6.0 and the “Postemergence herbicidal rating ZEAMX” value ([12]; 0.008 kg/ha) was 7.5. The “Postemergence herbicidal rating ZEAMX” value ([12]; 0.016 kg/ha) was 8.0, the “Postemergence herbicidal rating ZEAMX” value ([12]; 0.032 kg/ha) was 8.0 and the “Postemergence herbicidal rating ZEAMX” value ([12]; 0.062 kg/ha) was 8.0. For the same compound, the ABUTH herbicidal rating ([13]; rate 0.016 kg/ha) was 0.0, the ABUTH herbicidal rating ([13]; rate 0.032 kg/ha) was 0.0 and the ABUTH herbicidal rating ([13]; rate 0.062 kg/ha) was 2.0. The ABUTH herbicidal rating ([13]; rate 0.125 kg/ha) was 9.0, the AMBEL herbicidal rating ([14]; rate 0.016 kg/ha) was 0.0 and the AMBEL herbicidal rating ([14]; rate 0.032 kg/ha) was 0.0. It also gave an AMBEL herbicidal rating ([14]; rate 0.062 kg/ha) of 0.0, an AMBEL herbicidal rating ([14]; rate 0.125 kg/ha) of 9.0 and a CASOB herbicidal rating ([15]; rate 0.016 kg/ha) of 0.0. It also gave a CASOB herbicidal rating ([15]; rate 0.032 kg/ha) of 0.0, a CASOB herbicidal rating ([15]; rate 0.062 kg/ha) of 0.0 and a CASOB herbicidal rating ([15]; rate 0.125 kg/ha) of 2.0. For the same compound, the CHEAL herbicidal rating ([16]; rate 0.016 kg/ha) was 9.0, the CHEAL herbicidal rating ([16]; rate 0.032 kg/ha) was 9.0 and the CHEAL herbicidal rating ([16]; rate 0.062 kg/ha) was 9.0. The CHEAL herbicidal rating ([16]; rate 0.125 kg/ha) was 9.0, the ECHCG herbicidal rating ([17]; rate 0.016 kg/ha) was 0.0 and the ECHCG herbicidal rating ([17]; rate 0.032 kg/ha) was 0.0. For the same compound, the ECHCG herbicidal rating ([17]; rate 0.062 kg/ha) was 0.0, the ECHCG herbicidal rating ([17]; rate 0.125 kg/ha) was 0.0 and the GALAP herbicidal rating ([18]; rate 0.016 kg/ha) was 0.0. For the same compound, the GALAP herbicidal rating ([18]; rate 0.032 kg/ha) was 0.0, the GALAP herbicidal rating ([18]; rate 0.062 kg/ha) was 0.0 and the GALAP herbicidal rating ([18]; rate 0.125 kg/ha) was 0.0. It also gave an IPOHE herbicidal rating ([19]; rate 0.016 kg/ha) of 0.0, an IPOHE herbicidal rating ([19]; rate 0.032 kg/ha) of 0.0 and an IPOHE herbicidal rating ([19]; rate 0.062 kg/ha) of 0.0. For the same compound, the SETVI herbicidal rating ([20]; rate 0.016 kg/ha) was 0.0, the SETVI herbicidal rating ([20]; rate 0.032 kg/ha) was 0.0 and the SETVI herbicidal rating ([20]; rate 0.062 kg/ha) was 0.0. It also gave an SETVI herbicidal rating ([20]; rate 0.125 kg/ha) of 9.0, a GLXMAW herbicidal rating ([21]; rate 0.016 kg/ha) of 0.0 and a GLXMAW herbicidal rating ([21]; rate 0.032 kg/ha) of 0.0. It also gave a GLXMAW herbicidal rating ([21]; rate 0.062 kg/ha) of 0.0, a GLXMAW herbicidal rating ([21]; rate 0.125 kg/ha) of 0.0 and a TRZAWR herbicidal rating ([22]; rate 0.016 kg/ha) of 0.0. For the same compound, the TRZAWR herbicidal rating ([22]; rate 0.032 kg/ha) was 0.0, the TRZAWR herbicidal rating ([22]; rate 0.062 kg/ha) was 0.0 and the TRZAWR herbicidal rating ([22]; rate 0.125 kg/ha) was 0.0. The ORYSAT herbicidal rating ([23]; rate 0.016 kg/ha) was 0.0, the ORYSAT herbicidal rating ([23]; rate 0.032 kg/ha) was 0.0 and the ORYSAT herbicidal rating ([23]; rate 0.062 kg/ha) was 0.0. The ORYSAT herbicidal rating ([23]; rate 0.125 kg/ha) was 0.0, the ZEAMX herbicidal rating ([24]; rate 0.016 kg/ha) was 0.0 and the ZEAMX herbicidal rating ([24]; rate 0.032 kg/ha) was 0.0. The ZEAMX herbicidal rating ([24]; rate 0.062 kg/ha) was 0.0 and the ZEAMX herbicidal rating ([24]; rate 0.125 kg/ha) was 0.0.
